# According to patent US20170247326A1, “Substituted Pyrrolidine Carboxamide Compounds” (EPIZYME, INC., priority 2014, published 2017):
# Target: T1, SMYD2 (Homo sapiens, UniProt Q9NRG4)
# T1 construct: Full length SMYD2 (NP_064582.2) was cloned; His6 (N, cleaved yes); FLAG (N); made in house; host or cells: Sf9 insect cells
# Experiment: SMYD2 biochemical assay (3H-SAM, biotinylated peptide substrate, Flashplate)
# Conditions: Table 1; average of n = 1 to n = 50; read-out: SMYD2 Biochem IC50
# Description: S-adenosylmethionine (SAM), S-adenosylhomocysteine (SAH), bicine, Tween20, dimethylsulfoxide (DMSO), bovine skin gelatin (BSG), and Tris(2-carboxyethyl)phosphine hydrochloride (TCEP) were purchased from Sigma-Aldrich at the highest level of purity possible. ^3H-SAM was purchase from American Radiolabeled Chemicals with a specific activity of 80 Ci/mmol. 384-well streptavidin Flashplates were purchased from PerkinElmer.
# Peptide was synthesized with a N-terminal linker-affinity tag motif and a C-terminal amide cap by 21st Century Biochemicals. The peptide was high high-performance liquid chromatography (HPLC) purified to greater than 95% purity and confirmed by liquid chromatography mass spectrometry (LC-MS). The sequence was […](K-Biot)-amide. (SEQ ID NO: 3)
# Full length SMYD2 (NP_064582.2) was cloned into a pFastbac-Htb-lic vector with an N-terminal His6 tag and FLAG tag, preceded by a TEV protease cleavage site. The protein was expressed in Sf9 insect cells. Cells were resuspended in lysis buffer (25 mM HEPES-NaOH, pH 7.5, 200 mM NaCl, 5% glycerol, and 5 mM […] and lysed by sonication. The protein was purified by Ni-NTA (Qiagen), followed by TEV cleavage to remove the His6 tag, subtractive Ni-NTA (Qiagen), and gel filtration chromatography using an S200 column (GE Healthcare). Purified protein was stored in 20 mM Tris-HCl, pH 8.0, 100 mM NaCl, and 1 mM TCEP.
# General Procedure for SMYD2 Enzyme Assays on Peptide Substrates
# The assays were all performed in a buffer consisting of 20 mM Bicine (pH=7.6), 1 mM TCEP, 0.005% Bovine Skin Gelatin, and 0.002% Tween20, prepared on the day of use. Compounds in 100% DMSO (1 ul) were spotted into a polypropylene 384-well V-bottom plates (Greiner) using a Platemate Plus outfitted with a 384-channel head (Thermo Scientific). DMSO (1 ul) was added to Columns 11, 12, 23, 24, rows A-H for the maximum signal control and 1 ul of SAH, a known product and inhibitor of SMYD2, was added to columns 11, 12, 23, 24, rows I-P for the minimum signal control. A cocktail (40 ul) containing the SMYD2 enzyme was added by Multidrop Combi (Thermo-Fisher). The compounds were allowed to incubate with SMYD2 for 30 min at room temperature, then a cocktail (10 ul) containing ^3H-SAM and peptide was added to initiate the reaction (final volume=51 ul). The final concentrations of the components were as follows: SMYD2 was 1.5 nM, ^3H-SAM was 10 nM, and peptide was 60 nM, SAH in the minimum signal control wells was 1000 uM, and the DMSO concentration was 2%. The assays were stopped by the addition of non-radioactive SAM (10 ul) to a final concentration of 600 uM, which dilutes the ^3H-SAM to a level where its incorporation into the peptide substrate is no longer detectable. 50 ul of the reaction in the 384-well polypropylene plate was then transferred to a 384-well Flashplate and the biotinylated peptides were allowed to bind to the streptavidin surface for at least 1 hour before being washed three times with 0.1% Tween20 in a Biotek ELx405 plate washer. The plates were then read in a PerkinElmer TopCount plate reader to measure the quantity of ^3H-labeled peptide bound to the Flashplate surface, measured as disintegrations per minute (dpm) or alternatively, referred to as counts per minute (cpm).
# Where dpm=disintegrations per minute, cmpd=signal in assay well, and min and max are the respective minimum and maximum signal controls.
# Where top and bottom are the normally allowed to float, but may be fixed at 100 or 0 respectively in a 3-parameter fit. The Hill Coefficient normally allowed to float but may also be fixed at 1 in a 3-parameter fit. I is the compound concentration.
# SMYD2 biochemical assay data for representative Compounds of the Disclosure are presented in Tables 1, 3, and 4 in the column titled “SMYD2 Bicohem IC50 (μM).”
# T1 sequence (Q9NRG4 whole entry): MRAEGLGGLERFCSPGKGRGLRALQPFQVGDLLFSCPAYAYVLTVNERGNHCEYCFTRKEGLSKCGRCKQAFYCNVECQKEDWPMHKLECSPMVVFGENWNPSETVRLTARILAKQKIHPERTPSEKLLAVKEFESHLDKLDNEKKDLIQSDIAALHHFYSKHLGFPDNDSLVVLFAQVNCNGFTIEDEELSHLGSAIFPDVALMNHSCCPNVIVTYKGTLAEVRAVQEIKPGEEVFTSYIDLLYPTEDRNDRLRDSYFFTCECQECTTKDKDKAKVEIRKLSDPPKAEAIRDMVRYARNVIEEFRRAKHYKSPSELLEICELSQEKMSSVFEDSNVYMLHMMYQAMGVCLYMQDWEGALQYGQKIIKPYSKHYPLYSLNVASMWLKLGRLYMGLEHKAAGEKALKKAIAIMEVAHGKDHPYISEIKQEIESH
row,IC50,Molecule
1,> 50 µM,"C[C@@H]1CN(C2CC2)C[C@@H]1NC(=O)c1ccc2c(c1)OC(F)(F)O2 (racemic) [compound 2, (±)-cis-N-(1-cyclopropyl-4-methylpyrrolidin-3-yl)-2,2-difluorobenzo[d][1,3]dioxole-5-carboxamide]"
2,> 50 µM,"Cc1cc(C(=O)N[C@@H]2CN(C3CC3)C[C@@H]2C)n(Cc2ccccc2)n1 (racemic) [compound 10, (±)-cis-1-benzyl-N-(1-cyclopropyl-4-methylpyrrolidin-3-yl)-3-methyl-1H-pyrazole-5-carboxamide]"
3,> 50 µM,"C[C@H]1CN(C2CC2)C[C@@H]1NC(=O)c1ccc2[nH]c(=O)oc2c1 (racemic) [compound 13, (±)-trans-N-(1-cyclopropyl-4-methylpyrrolidin-3-yl)-2-oxo-2,3-dihydrobenzo[d]oxazole-6-carboxamide]"
4,> 50 µM,"C[C@H]1CN(C2CC2)C[C@H]1NC(=O)c1cc(O)nn1C (racemic) [compound 16, (±)-cis-N-(1-cyclopropyl-4-methylpyrrolidin-3-yl)-3-hydroxy-1-methyl-1H-pyrazole-5-carboxamide]"
5,> 50 µM,"C[C@H]1CN(C2CC2)C[C@@H]1NC(=O)c1ccc2c(c1)CC(=O)N2 (racemic) [Cpd. No. 5, (±)-trans-N-(1-cyclopropyl-4-methylpyrrolidin-3-yl)-2-oxoindoline-5-carboxamide]"
6,> 50 µM,"Cc1cc(C(=O)N[C@H]2CN(C3CC3)C[C@@H]2C)n(Cc2ccccc2)n1 (racemic) [compound 9, (±)-trans-1-benzyl-N-(1-cyclopropyl-4-methylpyrrolidin-3-yl)-3-methyl-1H-pyrazole-5-carboxamide]"
7,> 50 µM,"C[C@H]1CN(C2CC2)C[C@H]1NC(=O)c1ccc2c(c1)CC(=O)N2 (racemic) [Cpd. No. 6, (±)-cis-N-(1-cyclopropyl-4-methylpyrrolidin-3-yl)-2-oxoindoline-5-carboxamide]"
8,> 50 µM,"C[C@H]1CN(C2CC2)C[C@H]1NC(=O)Cc1ccc2c(c1)NC(=O)CO2 (racemic) [compound 4, (±)-cis-N-(1-cyclopropyl-4-methylpyrrolidin-3-yl)-2-(3-oxo-3,4-dihydro-2H-benzo[b][1,4]oxazin-6-yl)acetamide]"

# Same assay, conditions: Table 3; average of n = 1 to n = 50; read-out: SMYD2 Biochem IC50
row,Molecule,IC50
1,(±)-cis-N-(1-((2-aminoethyl)sulfonyl)-4-methylpyrrolidin-3-yl)-5-cyclopmpylpyridazine-3-carboxamide [compound 113],> 50 µM
2,"CC(C)N1C[C@H](C)[C@H](NC(=O)c2cncc(C3CC3)n2)C1 (racemic) [compound 42, (±)-cis-6-cyclopropyl-N-[4-methyl-1-(propan-2-yl)pyrrolidin-3-yl]pyrazine-2-carboxamide]",> 50 µM
3,"CC(C)N1C[C@@H](C)[C@H](NC(=O)c2ccc(N3CCCC3)cc2)C1 (racemic) [compound 33, (±)-trans-N-[4-methyl-1-(propan-2-yl)pyrrolidin-3-yl]-4-(pyrrolidin-1-yl)benzamide]",> 50 µM
4,"CC(C)N1C[C@@H](C)[C@H](NC(=O)c2ccc3c(c2)OCC(=O)N3)C1 (racemic) [compound 28, (±)-trans-N-[4-methyl-1-(propan-2-yl)pyrrolidin-3-yl]-3-oxo-3,4-dihydro-2H-1,4-benzoxazine-7-carboxamide]",> 50 µM
5,"CC(C)N1C[C@@H](C)[C@H](NC(=O)c2noc(C3CC3)n2)C1 (racemic) [compound 39, (±)-trans-5-cyclopropyl-N-[4-methyl-1-(propan-2-yl)pyrrolidin-3-yl]-1,2,4-oxadiazole-3-carboxamide]",> 50 µM

# The next lines start with the values.
row,IC50,Molecule
1,> 50 µM,"CC(C)N1CCC(C(=O)Nc2cc(O)c3c(c2)OCC(=O)N3)C1 (stereo not drawn) [compound 87, N-(5-hydroxy-3-oxo-3,4-dihydro-2H-1,4-benzoxazin-7-yl)-1-(propan-2-yl)pyrrolidine-3-carboxamide]"
2,> 50 µM,"CC(C)N1C[C@@H](C)[C@H](NC(=O)c2coc(C3CC3)n2)C1 (racemic) [compound 54, (±)-trans-2-cyclopropyl-N-[4-methyl-1-(propan-2-yl)pyrrolidin-3-yl]-1,3-oxazole-4-carboxamide]"
3,> 50 µM,"CC(C)N1C[C@H](C)[C@H](NC(=O)c2cc(O)c3c(c2)OCC(=O)N3)C1 (racemic) [compound 85, (±)-cis-5-hydroxy-N-[4-methyl-1-(propan-2-yl)pyrrolidin-3-yl]-3-oxo-3,4-dihydro-2H-1,4-benzoxazine-7-carboxamide]"
4,26.8 µM,"CC(C)N1C[C@@H](C)[C@H](NC(=O)c2nnc(C3CC3)o2)C1 (racemic) [compound 49, (±)-trans-5-cyclopropyl-N-[4-methyl-1-(propan-2-yl)pyrrolidin-3-yl]-1,3,4-oxadiazole-2-carboxamide]"
5,4.64 µM,"CC(C)N1C[C@H](C)[C@H](NC(=O)c2nnc(C3CC3)o2)C1 (racemic) [compound 53, (±)-cis-5-cyclopropyl-N-[4-methyl-1-(propan-2-yl)pyrrolidin-3-yl]-1,3,4-oxadiazole-2-carboxamide]"
6,> 50 µM,"CC(=O)N[C@@H]1CN(C(C)C)C[C@H]1C (racemic) [compound 58, (±)-trans-N-[4-methyl-1-(propan-2-yl)pyrrolidin-3-yl]acetamide]"
7,3.3 µM,"CC(C)N1C[C@H](C)[C@H](NC(=O)c2ncc(C3CC3)s2)C1 (racemic) [compound 69, (±)-cis-5-cyclopropyl-N-[4-methyl-1-(propan-2-yl)pyrrolidin-3-yl]-1,3-thiazole-2-carboxamide]"
8,> 50 µM,"CC(C)c1coc(C(=O)N[C@@H]2CN(C(C)C)C[C@@H]2C)n1 (racemic) [compound 102, (±)-cis-N-[4-methyl-1-(propan-2-yl)pyrrolidin-3-yl]-4-(propan-2-yl)-1,3-oxazole-2-carboxamide]"
9,24.3 µM,"CC(C)N1C[C@@H](C)[C@H](NC(=O)c2ncc(C3CC3)[nH]2)C1 (racemic) [compound 74, (±)-trans-5-cyclopropyl-N-[4-methyl-1-(propan-2-yl)pyrrolidin-3-yl]-1H-imidazole-2-carboxamide]"
10,13.6 µM,"CC(C)N1C[C@H](C)[C@H](NC(=O)c2cc(C3CC3)c[nH]c2=O)C1 (racemic) [compound 82, (±)-cis-5-cyclopropyl-N-[4-methyl-1-(propan-2-yl)pyrrolidin-3-yl]-2-oxo-1,2-dihydropyridine-3-carboxamide]"
11,> 50 µM,"CC(C)N1C[C@@H](C)[C@H](NC(=O)c2ccc(C3CC3)c(=O)[nH]2)C1 (racemic) [compound 57, (±)-trans-5-cyclopropyl-N-[4-methyl-1-(propan-2-yl)pyrrolidin-3-yl]-6-oxo-1,6-dihydropyridine-2-carboxamide]"
12,> 50 µM,"CC(C)N1C[C@@H](C)[C@H](NC(=O)c2ncc(C3CC3)s2)C1 (racemic) [compound 72, (±)-trans-5-cyclopropyl-N-[4-methyl-1-(propan-2-yl)pyrrolidin-3-yl]-1,3-thiazole-2-carboxamide]"
13,16.7 µM,"CC(C)N1C[C@H](C)[C@H](NC(=O)c2cc(C3CC3)ncn2)C1 (racemic) [compound 50, (±)-cis-6-cyclopropyl-N-[4-methyl-1-(propan-2-yl)pyrrolidin-3-yl]pyrimidine-4-carboxamide]"

# Same assay, conditions: Table 4; average of n = 1 to n = 50; read-out: SMYD2 Biochem IC50
row,IC50,Molecule
1,11.5 µM,"CC(C)N1CC(NC(=O)c2cc(C3CC3)cnn2)CC1C (stereo not drawn) [compound 125, 5-cyclopropyl-N-(1-isopropyl-5-methylpyrrolidin-3-yl)pyridazine-3-carboxamide]"
